According to the supplement of paper PMC11061612:

Assays:
Test in all cases: combination Emax (second highest fraction inhibited in the dose matrix, 72 h); higher = more inhibition; extreme values may be limits of the assay
[1] = tested on: KP-2 (Pancreatic Carcinoma)
Procedure, shortened: (§1)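 Bliss excess equals the observed combination effect minus the expected value EA + EB − EA·EB, where EA and EB are the effects of each agent alone. Combination Emax is the second-highest inhibition within the matrix. Inhibition was scaled from CellTiter-Glo 2.0 luminescence, with 0 set by vehicle wells and 1 by blank wells, after 72 hours of two-drug dosing of cells plated in 1536-well plates.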

[2] = tested on: EMC-BAC-2 (Non-Small Cell Lung Carcinoma)
Procedure, shortened: as §1

[3] = tested on: SCC-9 (Oral Cavity Carcinoma)
Procedure, shortened: as §1

[4] = tested on: NCI-H2405 (Lung Adenocarcinoma)
Procedure, shortened: as §1

[5] = tested on: GI-1 (Glioblastoma)
Procedure, shortened: as §1

[6] = tested on: SCC-3 (B-Cell Non-Hodgkin's Lymphoma)
Procedure, shortened: as §1

[7] = tested on: NCI-H2347 (Lung Adenocarcinoma)
Procedure, shortened: as §1

[8] = tested on: BV-173 (Chronic Myelogenous Leukemia)
Procedure, shortened: as §1

[9] = tested on: NCI-H1573 (Lung Adenocarcinoma)
Procedure, shortened: as §1

[10] = tested on: SNU-C1 (Colorectal Carcinoma)
Procedure, shortened: as §1

[11] = tested on: DG-75 (Burkitt's Lymphoma)
Procedure, shortened: as §1

[12] = tested on: MFE-319 (Endometrial Carcinoma)
Procedure, shortened: as §1

[13] = tested on: IMR-5 (Neuroblastoma)
Procedure, shortened: as §1

[14] = tested on: EW-3 (Ewing's Sarcoma)
Procedure, shortened: as §1

[15] = tested on: KYSE-50 (Esophageal Squamous Cell Carcinoma)
Procedure, shortened: as §1

[16] = tested on: EW-18 (Ewing's Sarcoma)
Procedure, shortened: as §1

[17] = tested on: OVISE (Ovarian Carcinoma)
Procedure, shortened: as §1

[18] = tested on: JHH-7 (Hepatocellular Carcinoma)
Procedure, shortened: as §1

[19] = tested on: EW-13 (Ewing's Sarcoma)
Procedure, shortened: as §1

[20] = tested on: H-EMC-SS (Chondrosarcoma)
Procedure, shortened: as §1

Compound	combination Emax [1]	combination Emax [2]	combination Emax [3]	combination Emax [4]	combination Emax [5]	combination Emax [6]	combination Emax [7]	combination Emax [8]	combination Emax [9]	combination Emax [10]	combination Emax [11]	combination Emax [12]	combination Emax [13]	combination Emax [14]	combination Emax [15]	combination Emax [16]	combination Emax [17]	combination Emax [18]	combination Emax [19]	combination Emax [20]
CC1(C)CCC(CN2CCN(c3ccc(C(=O)NS(=O)(=O)c4ccc(NCC5CCOCC5)c([N+](=O)[O-])c4)c(Oc4cnc5[nH]ccc5c4)c3)CC2)=C(c2ccc(Cl)cc2)C1 [Venetoclax] + Cc1cc2ncnn2cc1Nc1ncc2c(n1)n(C1CCOCC1)c(=O)n2C [AZD7648] (first compound max 1 µM, 7x7, partner max 10 µM)	0.175	0.271	0.194	0.103	0.238	0.214	0.194	0.811	0.173	0.227	0.317	0.26	0.282	0.735	0.217	0.455	0.275	0.134	0.0496	0.327
COc1nnc2ccc(N3CCC(c4ccc(OCCN5CCN(C)C(=O)[C@H]5C)cc4)CC3)nn12 [AZD5153] + CN(CC[C@H](CSC1=CC=CC=C1)NC2=C(C=C(C=C2)S(=O)(=O)NC(=O)C3=CC=C(C=C3)N4CCC(CC4)[C@H](C5=CC=CC=C5C6=CC=C(C=C6)Cl)O)S(=O)(=O)C(F)(F)F)CCO [AZD4320] (first compound max 1 µM, 7x7, partner max 1 µM)	0.945	0.661	–	0.443	–	0.93	0.518	0.957	0.356	–	0.881	0.476	0.984	–	0.732	0.929	0.9	–	0.818	–
C[C@@H](c1ccc2nccn2c1)n1nnc2ncc(-c3cnn(C)c3)nc21 [Savolitinib] + Cc1c2c(nn1C)CSCc1cc(n(C)n1)CSc1cc(c3ccccc3c1)OCCCc1c(C(=O)O)n(C)c3c-2c(Cl)ccc13 [AZD5991] (first compound max 1 µM, 7x7, partner max 1 µM)	0.205	0.45	0.185	0.0962	0.587	0.279	0.107	0.704	0.351	0.396	0.11	0.406	0.645	0.558	0.298	0.874	0.148	0.205	0.313	0.182
C=CCn1c(=O)c2cnc(Nc3ccc(N4CCN(C)CC4)cc3)nc2n1-c1cccc(C(C)(C)O)n1 [AZD1775] + O=C(c1cc(Cc2n[nH]c(=O)c3ccccc23)ccc1F)N1CCN(C(=O)C2CC2)CC1 [Olaparib] (first compound max 1 µM, partner max 10 µM)	0.225	0.269	0.265	0.192	0.917	0.968	0.35	0.96	0.325	0.313	0.694	0.619	0.83	0.661	0.301	0.522	0.619	0.293	0.622	0.333
COc1cccc(OCCCN)c1-c1cc(Nc2cnc(C#N)cn2)n[nH]1 [Prexasertib] + C[C@@H]1COCCN1C2=NC(=NC(=C2)C3(CC3)[S@](=N)(=O)C)C4=C5C=CNC5=NC=C4 [AZD6738] (first compound max 1 µM, 7x7, partner max 10 µM)	0.398	0.497	0.433	0.337	0.962	1	0.458	0.964	0.669	0.73	0.942	0.826	1	0.819	0.818	0.745	0.716	0.4	0.632	0.383
Cc1c2c(nn1C)CSCc1cc(n(C)n1)CSc1cc(c3ccccc3c1)OCCCc1c(C(=O)O)n(C)c3c-2c(Cl)ccc13 [AZD5991] + C1CN(CCC1(C(=O)N[C@@H](CCO)C2=CC=C(C=C2)Cl)N)C3=NC=NC4=C3C=CN4 [Capivasertib] (first compound max 1 µM, 7x7, partner max 3 µM)	0.18	0.718	0.231	0.203	0.949	0.487	0.134	0.927	0.264	0.576	0.257	0.776	1	0.649	0.226	0.95	0.354	0.188	0.432	0.647
CS(=O)(=O)CCNCc1ccc(-c2ccc3ncnc(Nc4ccc(OCc5cccc(F)c5)c(Cl)c4)c3c2)o1 [Lapatinib] + NC1(c2ccc(-c3nc4ccn5c(=O)[nH]nc5c4cc3-c3ccccc3)cc2)CCC1 [MK-2206] (first compound max 10 µM, 7x7, partner max 10 µM)	–	–	0.972	0.113	0.899	–	0.188	–	0.723	0.631	–	0.946	–	0.87	–	–	0.928	0.754	–	0.316
CN(C)CCCOc1ccc(-c2ccc3ncc4c(c3c2)n(C2CCOCC2)c(=O)n4C)cn1 [AZD0156] + O=C(c1cc(Cc2n[nH]c(=O)c3ccccc23)ccc1F)N1CCN(C(=O)C2CC2)CC1 [Olaparib] (first compound max 3 µM, partner max 3 µM)	0.152	0.486	0.262	0.256	0.336	0.687	0.268	0.764	0.18	0.226	0.481	0.193	0.544	0.708	0.195	0.61	0.306	0.339	–	0.258
C=CCn1c(=O)c2cnc(Nc3ccc(N4CCN(C)CC4)cc3)nc2n1-c1cccc(C(C)(C)O)n1 [AZD1775] + C1CN(CCC1(C(=O)N[C@@H](CCO)C2=CC=C(C=C2)Cl)N)C3=NC=NC4=C3C=CN4 [Capivasertib] (first compound max 3 µM, partner max 3 µM)	0.498	0.592	0.638	0.572	0.907	0.977	0.477	–	0.604	0.568	0.922	0.858	1	0.518	0.771	0.859	0.651	0.727	–	0.464
C[C@@H](c1ccc2nccn2c1)n1nnc2ncc(-c3cnn(C)c3)nc21 [Savolitinib] + CN(CC[C@H](CSC1=CC=CC=C1)NC2=C(C=C(C=C2)S(=O)(=O)NC(=O)C3=CC=C(C=C3)N4CCC(CC4)[C@H](C5=CC=CC=C5C6=CC=C(C=C6)Cl)O)S(=O)(=O)C(F)(F)F)CCO [AZD4320] (first compound max 1 µM, 7x7, partner max 1 µM)	0.855	0.216	–	0.271	–	0.0987	0.413	0.954	0.218	–	0.057	0.191	0.481	–	0.188	0.891	0.7	–	0.639	–
Cc1c2c(nn1C)CSCc1cc(n(C)n1)CSc1cc(c3ccccc3c1)OCCCc1c(C(=O)O)n(C)c3c-2c(Cl)ccc13 [AZD5991] + C=CCn1c(=O)c2cnc(Nc3ccc(N4CCN(C)CC4)cc3)nc2n1-c1cccc(C(C)(C)O)n1 [AZD1775] (first compound max 1 µM, partner max 1 µM)	–	0.842	0.331	0.262	0.958	0.85	0.357	0.942	0.427	0.395	0.92	0.913	1	0.701	0.618	0.91	0.633	0.415	0.388	0.399
CC(=O)c1c(C)c2cnc(Nc3ccc(N4CCNCC4)cn3)nc2n(C2CCCC2)c1=O [Palbociclib] + CN(CC[C@H](CSC1=CC=CC=C1)NC2=C(C=C(C=C2)S(=O)(=O)NC(=O)C3=CC=C(C=C3)N4CCC(CC4)[C@H](C5=CC=CC=C5C6=CC=C(C=C6)Cl)O)S(=O)(=O)C(F)(F)F)CCO [AZD4320] (first compound max 10 µM, 7x7, partner max 1 µM)	0.743	0.366	–	0.351	–	0.392	0.458	0.958	0.306	–	0.735	0.31	0.949	–	0.37	0.903	0.889	–	0.649	–
CN(CCO)CC[C@H](CSc1ccccc1)Nc1ccc(S(=O)(=O)NC(=O)c2ccc(N3CCC([C@@H](O)c4ccccc4-c4ccc(Cl)cc4)CC3)cc2)cc1S(=O)(=O)C(F)(F)F [AZD4320] + C1CN(CCC1(C(=O)N[C@@H](CCO)C2=CC=C(C=C2)Cl)N)C3=NC=NC4=C3C=CN4 [Capivasertib] (first compound max 1 µM, 7x7, partner max 3 µM)	0.842	0.301	0.21	0.224	0.627	0.257	0.362	0.962	0.575	0.775	0.266	–	0.788	0.918	0.0686	0.875	0.89	0.391	0.677	0.753
